# Test results: patent publication US9355826B2, “Method for imaging mass analysis using physical vapor deposition of platinum nanoparticles” (priority 2012, dated 2016)
# Test: IMS visualization of permeation and distribution of acephate in ivy after scattering a grain type agricultural chemical on the soil
# Assay type: in vivo
# Conditions: for mass spectrum of collected leaves (peaks originating from acephate): FIG. 32; for distribution of acephate on leaf (peak at m/z=206): FIG. 33; for distribution of acephate in stem (peak at m/z=206): ivy stems collected 4 days later, FIG. 34
# Procedure: A grain type pesticide agricultural chemical for horticulture was scattered on soil in which ivy was planted. 4, 8, 11, and 14 days later, leaves at about 30 mm from the soil were collected, and platinum nanoparticles were vapor deposited using a magnetron sputtering device to a thickness of 10 nm, thereby preparing samples. The grain type agricultural chemical that was used contained acephate as an active component.
# Each sample was measured by IMS. Also, for the stems that were collected 4 days later, the lower stem and the upper stem, which were respectively close to and far from the root, were measured by IMS under the same conditions.
# The measurement conditions of IMS are shown below.
# Irradiation laser: Nd:YAG laser (355 nm)
# Accelerating voltage: 19 kV
# Reflectron voltage: 21 kV
# Laser radius: about 100 μm (ultra mode)
# Measurement interval: 150 μm
compound,measurement,setting,value
COP(=O)(NC(C)=O)SC (centres unmarked) [acephate],mass spectrum of collected leaves (peaks originating from acephate),"ivy leaves at about 30 mm from the soil, collected 4 days after scattering on soil",only the peaks of the wax layer were observed
same,distribution of acephate on leaf (peak at m/z=206),ivy leaves collected 4 days later,not observed
same,distribution of acephate on leaf (peak at m/z=206),ivy leaves collected 8 days later,observed at the base of the leaves
same,mass spectrum of collected leaves (peaks originating from acephate),ivy leaves collected 11 days after scattering on soil,peaks originating from acephate were observed
same,distribution of acephate on leaf (peak at m/z=206),ivy leaves collected 11 days later,observed spreading to the tips of the leaves
same,distribution of acephate on leaf (peak at m/z=206),ivy leaves collected 14 days later,observed spreading to the tips of the leaves
same,distribution of acephate in stem (peak at m/z=206),lower stem close to the soil,strong peak of acephate was observed in the lower side of the lower stem
same,distribution of acephate in stem (peak at m/z=206),moving upward along the stem,gradual weakening of the acephate peak
